Results on 28 compounds are retold here after US20260070911A1, “INHIBITORS OF TAM RECEPTORS” (National Health Research Institutes, priority 2022, published 2026).

Holding throughout (assay type): biochemical
For one assay, the target named is T1, MERTK (Homo sapiens, UniProt Q12866).
T1 sequence (Q12866 21-999): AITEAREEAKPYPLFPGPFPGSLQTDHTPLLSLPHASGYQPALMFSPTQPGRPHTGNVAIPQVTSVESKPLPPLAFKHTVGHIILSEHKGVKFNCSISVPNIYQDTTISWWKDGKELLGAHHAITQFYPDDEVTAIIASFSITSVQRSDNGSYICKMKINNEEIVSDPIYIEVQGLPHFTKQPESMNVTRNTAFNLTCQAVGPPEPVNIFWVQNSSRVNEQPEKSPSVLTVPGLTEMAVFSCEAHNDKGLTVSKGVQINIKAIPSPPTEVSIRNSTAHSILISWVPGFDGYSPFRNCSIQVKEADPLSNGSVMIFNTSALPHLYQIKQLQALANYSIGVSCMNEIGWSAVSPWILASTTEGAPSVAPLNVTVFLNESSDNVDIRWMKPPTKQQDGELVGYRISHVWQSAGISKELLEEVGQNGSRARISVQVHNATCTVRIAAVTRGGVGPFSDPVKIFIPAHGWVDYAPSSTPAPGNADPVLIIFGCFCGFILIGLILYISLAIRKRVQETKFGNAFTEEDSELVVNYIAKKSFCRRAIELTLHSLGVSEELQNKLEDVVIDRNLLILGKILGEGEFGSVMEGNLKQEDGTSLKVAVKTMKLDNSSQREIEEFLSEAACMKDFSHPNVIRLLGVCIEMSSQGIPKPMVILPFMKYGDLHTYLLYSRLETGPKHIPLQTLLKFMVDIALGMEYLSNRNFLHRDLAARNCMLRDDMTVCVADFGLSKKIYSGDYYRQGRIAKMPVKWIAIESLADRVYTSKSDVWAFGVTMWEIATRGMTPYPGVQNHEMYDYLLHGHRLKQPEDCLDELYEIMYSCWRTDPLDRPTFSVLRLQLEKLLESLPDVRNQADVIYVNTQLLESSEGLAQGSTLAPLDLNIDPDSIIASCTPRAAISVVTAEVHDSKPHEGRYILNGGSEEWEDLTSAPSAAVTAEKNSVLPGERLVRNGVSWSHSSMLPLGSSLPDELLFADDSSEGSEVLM
Put plainly: MERTK enzymatic assay (Kinase Glo). The settings on record: purified kinase, ATP 12 μM, read-out: MER Enzymatic Inhibition (%).

The next assay addresses T2, AXL (Homo sapiens, UniProt P30530).
T2 sequence (P30530 26-894): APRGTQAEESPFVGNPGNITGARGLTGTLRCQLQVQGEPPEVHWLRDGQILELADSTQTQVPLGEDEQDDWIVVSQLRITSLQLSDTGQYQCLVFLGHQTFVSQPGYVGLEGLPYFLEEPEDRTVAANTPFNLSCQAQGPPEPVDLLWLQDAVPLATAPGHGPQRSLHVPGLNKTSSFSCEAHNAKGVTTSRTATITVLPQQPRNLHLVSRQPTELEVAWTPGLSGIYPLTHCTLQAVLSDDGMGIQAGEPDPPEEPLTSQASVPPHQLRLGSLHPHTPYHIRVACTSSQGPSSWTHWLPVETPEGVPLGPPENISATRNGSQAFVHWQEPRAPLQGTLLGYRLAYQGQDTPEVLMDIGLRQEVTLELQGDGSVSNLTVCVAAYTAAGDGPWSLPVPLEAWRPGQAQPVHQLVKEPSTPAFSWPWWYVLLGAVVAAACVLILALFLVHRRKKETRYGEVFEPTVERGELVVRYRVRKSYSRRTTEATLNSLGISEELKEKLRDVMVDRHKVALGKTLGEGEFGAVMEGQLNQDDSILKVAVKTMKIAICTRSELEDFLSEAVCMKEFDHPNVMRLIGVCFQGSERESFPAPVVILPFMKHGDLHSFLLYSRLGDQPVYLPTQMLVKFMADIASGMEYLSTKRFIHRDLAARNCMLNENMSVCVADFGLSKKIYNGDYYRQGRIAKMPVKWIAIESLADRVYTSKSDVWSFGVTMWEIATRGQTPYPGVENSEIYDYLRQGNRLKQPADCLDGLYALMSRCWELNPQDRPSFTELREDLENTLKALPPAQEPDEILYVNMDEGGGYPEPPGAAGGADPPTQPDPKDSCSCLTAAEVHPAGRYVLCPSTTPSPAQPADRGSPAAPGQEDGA
The experiment in a line: AXL enzymatic assay (ADP-Glo). The settings on record: purified kinase, ATP 50 μM, read-out: AXL Enzymatic Inhibition (%).

The next assay has as its system MER/AXL. The experiment in a line: Dual MER/AXL inhibition (enzymatic). To be noted: class for both MER and AXL.

As for `CC(=O)Nc1cccc(-c2c(-c3cc[nH]n3)oc3ncnc(Oc4ccc(NC(=O)c5cccn(-c6ccc(F)cc6)c5=O)cc4)c23)c1` [Compound 67], the IC50 is 100 to 50000 nM at MERTK, less than 20 nM at AXL and 100 to 50000 nM in the assay with MER/AXL.
Turning to `Cn1cc(-c2oc3ncnc(Oc4ccc(NC(=O)c5cc6c(n(-c7ccc(F)cc7)c5=O)CCCC6=O)cc4)c3c2-c2cccc(N)c2)cn1` [Compound 68], the IC50 was 20 to 100 nM on MERTK, less than 20 nM at AXL and 20 to 100 nM in the assay on MER/AXL.
For `CC(=O)Nc1cccc(-c2c(-c3cnn(C)c3)oc3ncnc(Oc4ccc(NC(=O)c5cc6c(n(-c7ccc(F)cc7)c5=O)CCCC6=O)cc4)c23)c1` [Compound 69], the IC50 at MERTK was 100 to 50000 nM; on AXL, less than 20 nM; in the assay on MER/AXL, 100 to 50000 nM.
With `CC(=O)Nc1cccc(-c2c(-c3cnn(C)c3)oc3ncnc(Oc4ccc(NC(=O)c5ccc(C)n(-c6ccc(F)cc6)c5=O)cc4)c23)c1` [Compound 70], the IC50 on MERTK, on AXL and in the assay with MER/AXL was less than 20 nM throughout.
As to `Cc1ccn(-c2ccc(F)cc2)c(=O)c1C(=O)Nc1ccc(Oc2ncnc3oc(-c4cnn(C)c4)c(-c4cccc(N)c4)c23)cc1` [Compound 71], the IC50 on MERTK, on AXL and with MER/AXL was less than 20 nM each time.
As to `CC(=O)Nc1cccc(-c2c(-c3cnn(C)c3)oc3ncnc(Oc4ccc(NC(=O)c5c(C)ccn(-c6ccc(F)cc6)c5=O)cc4)c23)c1` [Compound 72], the IC50 at MERTK, at AXL and with MER/AXL was 100 to 50000 nM each time.
Turning to `Cc1cc(F)ccc1-n1cccc(C(=O)Nc2ccc(Oc3ncnc4oc(-c5cnn(C)c5)c(-c5cccc(N)c5)c34)cc2)c1=O` [Compound 73], the IC50 is 20 to 100 nM on MERTK, less than 20 nM at AXL and 20 to 100 nM in the assay on MER/AXL.
With `CC(=O)Nc1cccc(-c2c(-c3cnn(C)c3)oc3ncnc(Oc4ccc(NC(=O)c5cccn(-c6ccc(F)cc6C)c5=O)cc4)c23)c1` [Compound 74], the IC50 at MERTK, on AXL and in the assay with MER/AXL was 100 to 50000 nM each time.
For the compound `CC(=O)Nc1cccc(-c2c(-c3cnn(C)c3)oc3ncnc(Oc4ccc(NC(=O)c5cccn(C)c5=O)cc4)c23)c1` [Compound 75], the IC50 at MERTK, at AXL and in the assay on MER/AXL was 100 to 50000 nM each time.
For the compound `O=C(Nc1ccc(Oc2ncnc3[nH]c(-c4ccccc4)cc23)cc1)c1cccn(-c2ccc(F)cc2)c1=O` [Compound 76], the IC50 at MERTK, on AXL and with MER/AXL was 100 to 50000 nM throughout.
Regarding `Cn1cc(-c2oc3ncnc(Oc4ccc(NC(=O)c5ccc[nH]c5=O)cc4)c3c2-c2cccc(N)c2)cn1` [Compound 77], the IC50 at MERTK, at AXL and with MER/AXL was 100 to 50000 nM throughout.
Consider `Cn1cc(-c2cc3c(Oc4ccc(NC(=O)c5cccn(-c6ccc(F)cc6)c5=O)cc4)ncnc3[nH]2)cn1` [Compound 78], for which the IC50 on MERTK is 20 to 100 nM; on AXL, less than 20 nM; in the assay with MER/AXL, 20 to 100 nM.
In the case of `O=C(Nc1ccc(Oc2ncnc3[nH]c(-c4ccsc4)cc23)cc1)c1cccn(-c2ccc(F)cc2)c1=O` [Compound 79], the IC50 at MERTK, at AXL and with MER/AXL was 100 to 50000 nM in each case.
Take `Cn1cc(-c2oc3ncnc(Oc4ccc(NC(=O)c5cccn(-c6ccc(F)nc6)c5=O)cc4)c3c2-c2cccc(N)c2)cn1` [Compound 80]: the IC50 at MERTK is 20 to 100 nM; on AXL, less than 20 nM; in the assay on MER/AXL, 20 to 100 nM.
Turning to `CC(=O)Nc1cccc(-c2c(-c3cnn(C)c3)oc3ncnc(Oc4ccc(NC(=O)c5cccn(-c6ccc(F)nc6)c5=O)cc4)c23)c1` [Compound 81], the IC50 on MERTK, at AXL and in the assay on MER/AXL was 100 to 50000 nM in each case.
On to `CN(C)Cc1cccc(-c2c[nH]c3ncnc(Oc4ccc(NC(=O)c5cccn(-c6ccc(F)cc6)c5=O)cc4)c23)c1` [Compound 82], for which the IC50 at MERTK, at AXL and in the assay on MER/AXL was less than 20 nM throughout.
Turning to `Cn1cc(-c2oc3ncnc(Oc4ccc(NC(=O)c5cccn(C6CCCCC6)c5=O)cc4)c3c2-c2cccc(N)c2)cn1` [Compound 83], the IC50 on MERTK, on AXL and in the assay on MER/AXL was 100 to 50000 nM each time.
As to `CN(C)Cc1cccc(-c2c(-c3cnn(C)c3)oc3ncnc(Oc4ccc(NC(=O)c5cccn(C6CCCCC6)c5=O)cc4)c23)c1` [Compound 84], the IC50 on MERTK, on AXL and with MER/AXL was 100 to 50000 nM throughout.
On to `Cn1cc(-c2cc3c(Oc4ccc(NC(=O)c5cccn(C6CCCCC6)c5=O)cc4)ncnc3o2)cn1` [Compound 86], for which the IC50 on MERTK, at AXL and in the assay with MER/AXL was 100 to 50000 nM each time.
In the case of `CN(C)Cc1cccc(-c2n[nH]c3ncnc(Oc4ccc(NC(=O)c5cccn(-c6ccc(F)cc6)c5=O)cc4)c23)c1` [Compound 88], the values for the IC50 at MERTK, on AXL and with MER/AXL were 20 to 100 nM, less than 20 nM and 20 to 100 nM, respectively.
With `CN(C)Cc1ccccc1-c1c(-c2cnn(C)c2)oc2ncnc(Oc3ccc(NC(=O)c4cccn(-c5ccc(F)cc5)c4=O)cc3)c12` [Compound 91], the IC50 at MERTK, at AXL and in the assay on MER/AXL was 100 to 50000 nM each time.
For the compound `Cn1cc(-c2oc3ncnc(Oc4ccc(NC(=O)c5cccn(-c6ccc(F)cc6F)c5=O)cc4)c3c2-c2cccc(N)c2)cn1` [Compound 92], the IC50 on MERTK is 20 to 100 nM; on AXL, less than 20 nM; in the assay with MER/AXL, 20 to 100 nM.
For the compound `CN(C)Cc1cccc(-c2c(-c3cnn(C)c3)oc3ncnc(Oc4ccc(NC(=O)c5cccn(-c6ccc(F)cc6F)c5=O)cc4)c23)c1` [Compound 93], the IC50 at MERTK is 20 to 100 nM; on AXL, less than 20 nM; in the assay with MER/AXL, 20 to 100 nM.
Turning to `Cn1cc(-c2oc3ncnc(Oc4ccc(NC(=O)c5cccn(-c6ccc(F)c(F)c6)c5=O)cc4)c3c2-c2cccc(N)c2)cn1` [Compound 94], the values for the IC50 at MERTK, at AXL and with MER/AXL were 20 to 100 nM, less than 20 nM and 20 to 100 nM, respectively.
Take `CN(C)Cc1cccc(-c2c(-c3cnn(C)c3)oc3ncnc(Oc4ccc(NC(=O)c5cccn(-c6ccc(F)c(F)c6)c5=O)cc4)c23)c1` [Compound 95]: the IC50 at MERTK, at AXL and in the assay on MER/AXL was less than 20 nM in each case.
As to `Cc1cc(F)ccc1-n1cccc(C(=O)Nc2ccc(Oc3ncnc4oc(-c5cnn(C)c5)c(-c5cccc(CN(C)C)c5)c34)cc2)c1=O` [Compound 98], the IC50 on MERTK is 20 to 100 nM; on AXL, less than 20 nM; with MER/AXL, 20 to 100 nM.
Take `Cn1cc(-c2oc3ncnc(Oc4ccc(NC(=O)c5cc(-c6ccc(F)cc6)on5)cc4)c3c2-c2cccc(N)c2)cn1` [Compound 115]: the IC50 at MERTK, on AXL and with MER/AXL was 100 to 50000 nM in each case.
With `CC(=O)Nc1cccc(-c2c(-c3cnn(C)c3)oc3ncnc(Oc4ccc(NC(=O)c5cc(-c6ccc(F)cc6)on5)cc4)c23)c1` [Compound 116], the IC50 on MERTK, at AXL and in the assay with MER/AXL was 100 to 50000 nM each time.
